This passage reports inhibition results from PubChem BioAssay AID720670 (NMMLSC, 2013).

Records with an inconclusive call do not appear. The source made the active and inactive calls.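 The calls were made as follows: active = inhibition of the calcium rise above 50%; inconclusive = blank fluorescence over twice solvent-only controls, so no ratio; inactive = inhibition below 50%.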

This experiment has as its system TALL-104 cells, thapsigargin Ca2+ rise, fura-2 ratio. Nature of the experiment: inhibitors of thapsigargin-evoked calcium rise, mechanism study for lytic granule exocytosis inhibitor project, TALL-104 cells, fura-2 fluorescence, CherryPick01 (AID 720670). Conditions: at 30 µM; hits give high values.
Broadly, the inhibition is the change of the read-out against control, counted positive when it falls. Turning to `CCc1ccc2nc(N(CCCN(C)C)C(=O)c3ccc(S(=O)(=O)N4CCc5ccccc5C4)cc3)sc2c1`, the inhibition was 50.9%.
As for `N#Cc1ccc(NC(=O)Nc2ccc(Oc3ccc(NC(=O)Nc4ccc(C#N)cc4)cc3)cc2)cc1`, the inhibition is -1.1% (inactive).
Turning to `COC(=O)c1c(NC(=O)c2ccc(C(=O)c3ccccc3)cc2)sc2c1CC(C)(C)NC2(C)C`, the inhibition is 73.3%.
As for `COC(=O)[C@]12CCCCC=C1N(Cc1cccc3ccccc13)C(=O)[C@H](CC(=O)NCc1ccc(OC)c(OC)c1)C2`, the inhibition was 6.3% (inactive).
`CCC(=C(c1ccc(OC)cc1)c1ccc(OC)cc1)c1cn(CC(O)CN2CCN(C)CC2)c2ccccc12` (configuration not stated): the inhibition is 41.5% (inactive).
As for `Cn1sc(=O)c2cc(S(=O)(=O)NC3CC3)ccc21`, the inhibition is 91.3%.
Consider `CC(=O)Nc1ccc2sn(-c3ccccc3)c(=O)c2c1`, for which the inhibition is 12.6% (inactive).
On to `COc1cc(-c2coc3c(C(=O)NCc4ccc(OC)c(OC)c4)cccc23)ccc1O`, for which the inhibition was 15.4% (inactive).
Take `COc1cccc(-c2cnc3c(NC=O)cc(-c4ccccc4)cn23)c1`: the inhibition was 66.5%.
For `CCOC(=O)c1cc(-c2csc(Nc3c(C)cc(C)cc3C)n2)on1`, the inhibition is 79.7%.
The figure for `O=C1Nc2ccc(Br)cc2/C1=C/C(=O)c1ccccc1` is 15.1% (inactive); for `CCCCC[C@@H](C)N1C[C@@H](COCc2ccccc2)Oc2cc(N3CC[C@@H](N(C)C)C3)ccc2S1(=O)=O` it is 21.3% (inactive); for `COc1cccc(-c2cnc3c(NC(C)=O)cc(-c4ccsc4)cn23)c1` it is 39.6% (inactive).
For the compound `COc1ccc(-c2cc(NC=O)c3ncc(-c4ccccc4)n3c2)cc1OC`, the inhibition was 31.5% (inactive).
In the case of `c1ccc(CNc2nc(NCC3CC3)nc3cc(-c4ccccc4)sc23)cc1`, the inhibition was 70%.
Regarding `CC1COCC(C)N1C1=C(Cl)C(=O)c2ccccc2C1=O` (configuration not stated), the inhibition is 27% (inactive).
Turning to `O=c1c2ccc(F)cc2sn1-c1ccccc1`, the inhibition was 7.1% (inactive).
The result for `CCc1nc2ccc(C(=O)NC3CCN(Cc4ccccc4)CC3)cn2c1N(C)Cc1cc2ccccc2s1` reads 3.6% (inactive).
As to `CCOC(=O)c1nnc(-c2ccccc2)nc1Sc1ccccc1Cl`, the inhibition was 21.2% (inactive).
As for `CCOc1ccc2nc(N(CCCN(C)C)C(=O)c3ccc(S(=O)(=O)N4CCc5ccccc5C4)cc3)sc2c1`, the inhibition was 69.4%.
The result for `CCCCn1c(=N)n(CC(=O)c2ccc(Br)s2)c2ccccc21` reads 58.6%; that for `CC(C)(c1ccccc1)c1ccc(OCC(O)CNC2CCN(Cc3ccccc3)CC2)cc1` (configuration not stated), 27.1% (inactive).
With `Cc1ccc(-n2nnc3c(=O)oc4ccccc4c32)cc1`, the inhibition is 116%.
For the compound `CCOc1ccc2nc(C)cc(Nc3cccc([N+](=O)[O-])c3)c2c1`, the inhibition is 77.7%.
In the case of `O=c1c2ccccc2sn1-c1ccccc1`, the inhibition is -10.6% (inactive).
On to `CC1=C(C)CS(=O)N(S(=O)(=O)c2ccc(Cl)cc2)C1` (configuration not stated), for which the inhibition is 11.4% (inactive).
As for `CN(c1ccccc1)S(=O)(=O)c1cccc(C(=O)NCCc2c[nH]c3ccccc23)c1`, the inhibition is 78.8%.
With `COc1cccc(-c2cnc3c(NC(C)=O)cc(-c4ccccc4OC)cn23)c1`, the inhibition is 81.3%.
The result for `COc1ccc(N2C(=O)CC(Sc3nnc(-c4ccccc4)o3)C2=O)cc1` (configuration not stated) reads -14.7% (inactive).
Consider `Cc1ccc(S(=O)(=O)n2ccc3c(OCCOCCNCc4ccc(F)cc4)cccc32)cc1`, for which the inhibition is 39.2% (inactive).
As for `COc1ccccc1CNc1nc(NCc2ccc3occc3c2)c2sccc2n1`, the inhibition is 8.8% (inactive).
Turning to `CCc1ccc(/C=C2/Sc3ccccc3N(CC(=O)NCCCN3CCOCC3)C2=O)cc1`, the inhibition was 3.8% (inactive).
As for `Cc1ccc(Nc2nc(NCc3ccco3)c3ccccc3n2)cc1`, the inhibition was -2.3% (inactive).
As for `CCOC(=O)c1c(CSc2ccccc2)n(C)c2cc(Br)c(O)c(CN(C)C)c12`, the inhibition is 70.2%.
Regarding `CCCCC[C@@H](C)N1C[C@H](COCc2ccccc2)Oc2cc(N3CC[C@@H](N(C)C)C3)ccc2S1(=O)=O`, the inhibition is 37.4% (inactive).
Regarding `O=C(Cn1sc2ccccc2c1=O)NC12CC3CC(CC(C3)C1)C2`, the inhibition is 3% (inactive).
Turning to `CCOc1cc(CNCCc2ccc(S(N)(=O)=O)cc2)ccc1OCc1ccc(Cl)cc1`, the inhibition is 63.5%.
For `O=CNc1cc(-c2ccsc2)cn2c(-c3ccccc3)cnc12`, the inhibition is 11% (inactive).
As to `CCCNC(=O)Cn1sc2nc(C)cc(C)c2c1=O`, the inhibition is 19.7% (inactive).
As to `CC1=NOC(=O)/C1=C/c1ccc(-c2ccc(Cl)cc2)o1`, the inhibition is 18.1% (inactive).
As for `O=S(=O)(c1ccccc1)c1nnn2c1nc(NC1CCN(Cc3ccccc3)CC1)c1cc(Cl)ccc12`, the inhibition is 79.3%.
`O=C1C=CC(=O)N1N(c1ccccc1)c1ccccc1`: the inhibition is 11.2% (inactive).
The figure for `Cc1cc(N2CCN(c3nc(-c4ccc([N+](=O)[O-])cc4)cs3)CC2)c2ccccc2n1` is -35.4% (inactive).
With `COc1ccc(-n2sc3ccccc3c2=O)cc1`, the inhibition is 19.8% (inactive).
For `CN(C)CCCNC(=S)NCC(c1ccc(Cl)cc1Cl)c1c[nH]c2ccccc12` (configuration not stated), the inhibition is 10.4% (inactive).
In the case of `CC1(C(=O)OCC(=O)Nc2nc(-c3ccc(F)c(F)c3)cs2)CC1(Cl)Cl` (configuration not stated), the inhibition was 20.1% (inactive).
For `COc1ccccc1CNc1nc(NCc2ccc(C(C)C)cc2)c2sccc2n1`, the inhibition was 4.1% (inactive).
With `O=c1c2ccccc2sn1-c1ccccc1F`, the inhibition is 18.8% (inactive).
In the case of `CCCCC[C@@H](C)N1C[C@@H](COCc2ccccc2)Oc2cc(N3CC[C@H](N(C)C)C3)ccc2S1(=O)=O`, the inhibition is 37.6% (inactive).
Consider `COc1ccc(-c2cc(NC=O)c3ncc(-c4cccc(OC)c4)n3c2)cc1`, for which the inhibition is 22.8% (inactive).
On to `O=C1CC(Sc2nnnn2-c2ccccc2)C(=O)N1c1cccc(Cl)c1` (configuration not stated), for which the inhibition was 6.9% (inactive).
On to `N#Cc1c(Nc2ccccc2Cl)s[nH]c1=O`, for which the inhibition is 9.3% (inactive).
Take `CC(=O)Nc1ccc2c(=O)n(-c3ccccc3)sc2c1`: the inhibition is 16.3% (inactive).
Regarding `CCCS(=O)(=O)Nc1ccc(Nc2c3ccccc3nc3ccccc23)c(OC)c1`, the inhibition is 67.1%.
Regarding `O=C(Nc1ccc(F)cc1)c1nc(S(=O)(=O)Cc2ccccc2)ncc1Cl`, the inhibition is 75.7%.
In the case of `O=C(Cn1sc2ccccc2c1=O)Nc1ccc(F)cc1`, the inhibition is -21.1% (inactive).
With `O=C(OCc1ccccc1)N(CCCCN(CCCNCc1ccccc1)C(=O)OCc1ccccc1)CCCNCc1ccccc1`, the inhibition is 57.3%.
Regarding `COc1ccc([N+](=O)[O-])cc1Nc1c2ccccc2nc2ccccc12`, the inhibition was 12.2% (inactive).
The result for `COc1cccc(NC(=O)Nc2nc(-c3ccc(OC)c(OC)c3)cs2)c1` reads 90.9%; that for `COC(=O)c1c(NC(=O)c2nc3ccccc3s2)sc2c1CC(C)(C)NC2(C)C`, 41.7% (inactive).
Consider `OC(CNCC(c1ccc(Cl)cc1Cl)c1c[nH]c2ccccc12)c1ccccc1` (configuration not stated), for which the inhibition was 34.1% (inactive).
`CCOC(=O)c1c(NC(=O)COc2ccccc2OCC)sc2c1CC(C)(C)NC2(C)C`: the inhibition is 32.1% (inactive).
